Broadly, the GI50 is the concentration that inhibits growth by half. Higher therefore signals less potent growth inhibition.

For one assay, the target named is SOS1/KRAS-G12D (Homo sapiens (Human), UniProt Q07889). The assay can be described thus: SOS1/KRAS-G12D binding inhibition assay (AlphaScreen). The settings on record: GST-SOS1 and 6*His KRAS-G12D, read-out: KrasG12D/SOS1 binding IC50. As for the experimental part:
Example 22: SOS1/KRAS-G12D Binding Inhibition Assay
SOS1 binding affinity of candidate compounds was measured by monitoring the interaction of SOS1 with KRAS-G12D in the presence of the test compound. Briefly, 5 nM GST tagged SOS1 proteins (final concentration) were pre-incubated with 50 nM 6*His tagged KRAS-G12D proteins (final concentration) in an assay buffer containing 10 mM HEPES, pH 7.4, 150 mM NaCl, 1 mM DTT, 5 mM MgCl2, 0.1% Tween-20, and 0.05% BSA for 30 minutes. The test compounds in 2% DMSO (final concentration) at various concentrations were then added to the reaction mixture and incubated for another 30 minutes at 4° C. 5 ug/ml GSH AlphaScreen donor beads (PerkinElmer, 6765300) and 5 ug/ml nickel chelate (Ni-NTA) AlphaScreen acceptor beads (PerkinElmer, 6760619C) (final concentrations) were then added to the mixture. After an incubation of 2 hours at 4° C., the fluorescent signals were obtained on the EnVision® 2105 Multilabel Plate Reader (PerkinElmer).
Raw AlphaScreen data were converted to a percentage of inhibition (relative to DMSO) using the following equations: • a) For a given test compound concentration X:
Signal (X)=Signal (SOS1 & KRAS-G12D & compound)-Signal (buffer & KRAS-G12D & compound)
Percentage of inhibition at concentration X=[1−Signal (X)/Signal (DMSO)]*100% b)
The IC50 values were determined by nonlinear regression of plots of [inhibitor] vs. percentage of inhibition with variable slope, analyzed using GraphPad Prism 9.
(In general: Bead proximity is the source of the signal in Alpha formats.)

A further assay concerns K562 cells. Kind of assay: Cell growth inhibition of K562 cells (CellTiter-Glo). Type of assay: cell-based. Conditions: Homo sapiens, 120 h, 5 days. As for the experimental part: Example 24: Cell Growth Inhibition of K562 Cells
K562 cells were obtained from American Type Culture Collection (ATCC). For cell growth assay, K562 cells were seeded in 96-well plates at 1000 cells/well in 90 μl of RPM11640 growth medium containing 10% FBS and 1% Penicillin Streptomycin, and then incubated at 37° C. for 1 hour. The test compound was administered to the cells by using 1000× compound stock solution prepared in DMSO at various concentrations. 1000× compound stock solution was first diluted in culturing medium to 10×, then 10 uL compound medium was added to each well in the cell plates. After administration of the compound, the cells were then incubated at 37° C. for 5 days. Upon completion, the plates were equilibrated at room temperature for approximately 10 minutes. 100 ul of CellTiter-Glo® Reagent (Promega) was added to each well. The plates were then incubated at room temperature for 10 minutes and luminescence was recorded by EnSpire plate reader (PerkinElmer).
A general note: ATP-based viability assays read luminescence as a measure of living cells.

In assay [1] the test system is Phospho-ERK1/2 in DLD1 cells. The assay can be described thus: Phospho-ERK1/2 expression inhibition in DLD1 cells. Type of assay: cell-based. The settings on record: Homo sapiens, DLD-1, 4 hours, read-out: DLD1 pERK IC50. As for the experimental part:
Example 23: Phospho-ERK1/2 Expression Inhibition in DLD1 Cells
DLD1 cells were obtained from American Type Culture Collection (ATCC). DLD1 cells were plated in 96-well plates (VWR #10062-900, or Corning #3904) in 90 uL culture medium at a density of 15,000 cells/well in the RPM11640 growth medium containing 10% FBS and 1% Penicillin Streptomycin, and then incubated at 37° C. overnight. The following day, the test compound was administered to the cells by using 1000×x compound stock solution prepared in DMSO at various concentrations. 1000× compound stock solution was first diluted in culturing medium to 10×, then 10 uL compound medium was added to each well in the cell plates. After administration of the compound, the cells were then incubated at 37° C. for 4 hours. Upon completion, the cells were washed with PBS briefly. 150 uL/well of 4% formaldehyde was added and the plates were incubated at room temperature for 20 mins. The cells were washed with PBS briefly, and permeabilized with 150 uL/well of ice cold 100% methanol for 10 mins. The cells were washed with PBS briefly and blocked with 100 uL/well LI-COR blocking buffer for 1 hr at room temperature with gentle shaking. The cells were incubated overnight at 4° C. with 50 uL primary antibody rabbit anti-Phospho-ERK1/2 (1: 500, Cell Signaling, #4370) diluted in Intercept Blocking Buffer (LI-COR, #927-60001) containing 0.1% Tween 20. The next day, the cells were washed with 200 uL PBS containing 0.1% Tween 20, 5×5 mins at room temperature with gentle shaking, and incubated with 50 uL secondary antibody, IRDye® 800CW Goat anti-Rabbit IgG (LI-COR, #926-32211), 1:1000, in LI-COR blocking buffer with 0.2% Tween 20 for 1 hr at room temperature with gentle shaking. The cells were washed with 200 uL PBS containing 0.1% Tween 20, 5×5 mins at room temperature with gentle shaking. The cells were washed with PBS for 5 mins. 100 uL fresh PBS was added to each well and the plates were imaged on a LI-COR Odyssey CLX plate reader.

SOS1/KRAS-G12D, sequence (Q07889 564-1049 limits assumed): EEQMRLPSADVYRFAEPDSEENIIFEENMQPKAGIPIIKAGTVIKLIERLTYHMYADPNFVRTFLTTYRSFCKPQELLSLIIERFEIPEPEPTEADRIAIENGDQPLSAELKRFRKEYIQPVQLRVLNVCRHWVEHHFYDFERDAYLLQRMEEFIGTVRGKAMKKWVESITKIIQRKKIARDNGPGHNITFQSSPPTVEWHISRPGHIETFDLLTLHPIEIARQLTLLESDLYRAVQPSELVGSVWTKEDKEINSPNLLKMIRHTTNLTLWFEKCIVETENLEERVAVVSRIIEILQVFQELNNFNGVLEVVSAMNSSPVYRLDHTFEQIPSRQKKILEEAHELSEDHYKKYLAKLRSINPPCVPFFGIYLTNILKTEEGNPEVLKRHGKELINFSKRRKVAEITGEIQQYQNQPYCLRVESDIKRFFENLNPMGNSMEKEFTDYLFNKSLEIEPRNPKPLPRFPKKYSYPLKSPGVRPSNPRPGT

In the case of `CC(=O)N1CCC(c2ccc3nccc(N[C@H](C)c4cccc(C(F)F)c4F)c3c2)CC1` [Compound 13, (R)-1-(4-(4-((1-(3-(difluoromethyl)-2-fluorophenyl)ethyl)amino)quinolin-6-yl)piperidin-1-yl)ethan-1-one], the IC50 at SOS1/KRAS-G12D is at most 0.01 µM; in assay [1], 0.15 to 0.5 µM. In the assay on K562 cells, this compound yielded a GI50 of at most 0.1 µM.

Consider `C[C@@H](Nc1ccnc2ccc(N3CCN(C(=O)[C@H]4CCOC4)CC3)cc12)c1cccc(C(F)F)c1F` [Compound 14, (4-(4-(((R)-1-(3-(difluoromethyl)-2-fluorophenyl)ethyl)amino)quinolin-6-yl)piperazin-1-yl)((S)-tetrahydrofuran-3-yl)methanone], for which the IC50 at SOS1/KRAS-G12D was at most 0.01 µM; in assay [1] it was 0.15 to 0.5 µM. The GI50 in the assay on K562 cells is at most 0.1 µM.

As for `C[C@@H](Nc1ccnc2ccc(N3CCN(C(=O)[C@@H]4CCOC4)CC3)cc12)c1cccc(C(F)F)c1F` [Compound 15, (4-(4-(((R)-1-(3-(difluoromethyl)-2-fluorophenyl)ethyl)amino)quinolin-6-yl)piperazin-1-yl)((R)-tetrahydrofuran-3-yl)methanone], the figures for the IC50 (on SOS1/KRAS-G12D; in assay [1]) were at most 0.01 µM and at most 0.15 µM, respectively. This compound also came in with a GI50 in the assay with K562 cells of 0.1 to 0.5 µM.

Regarding `C[C@@H](Nc1ccnc2ccc(N3CCN(C(=O)C4COC4)CC3)cc12)c1cccc(C(F)F)c1F` [Compound 16, (R)-(4-(4-((1-(3-(difluoromethyl)-2-fluorophenyl)ethyl)amino)quinolin-6-yl)piperazin-1-yl)(oxetan-3-yl)methanone], the IC50 is at most 0.01 µM on SOS1/KRAS-G12D and at most 0.15 µM in assay [1]. Also, in the assay on K562 cells, the GI50 is at most 0.1 µM.

Take `CC(C)C(=O)N1CCN(c2ccc3nccc(N[C@H](C)c4cccc(C(F)F)c4F)c3c2)CC1` [Compound 17, (R)-1-(4-(4-((1-(3-(difluoromethyl)-2-fluorophenyl)ethyl)amino)quinolin-6-yl)piperazin-1-yl)-2-methylpropan-1-one]: the IC50 on SOS1/KRAS-G12D is at most 0.01 µM; in assay [1], at most 0.15 µM. The GI50 in the assay with K562 cells was in the range of 0.1 to 0.5 µM.

As to `C[C@@H](Nc1ccnc2ccc(N3CC[C@H](N)C3)cc12)c1cccc(C(F)F)c1F` [Compound 18, 6-((S)-3-aminopyrrolidin-1-yl)-N-((R)-1-(3-(difluoromethyl)-2-fluorophenyl)ethyl)quinolin-4-amine], the IC50 was 0.01 to 0.1 µM at SOS1/KRAS-G12D and above 0.5 µM in assay [1]. Also, the GI50 in the assay on K562 cells is above 0.5 µM.

`Cc1c([C@@H](C)Nc2ccnc3ccc(N4CC5CC(C4)O5)cc23)cccc1C(F)(F)F` [Compound 19, 6-(6-oxa-3-azabicyclo[3.1.1]heptan-3-yl)-N-((R)-1-(2-methyl-3-(trifluoromethyl)phenyl)ethyl)quinolin-4-amine]: the results for the IC50 (on SOS1/KRAS-G12D; in assay [1]) were above 0.1 µM and above 0.5 µM, respectively. This compound also showed a GI50 with K562 cells of 0.1 to 0.5 µM.

With `Cc1c([C@@H](C)Nc2ccnc3ccc(N4CC[C@@H](N)C4)cc23)cccc1C(F)(F)F` [Compound 20, 6-((R)-3-aminopyrrolidin-1-yl)-N-((R)-1-(2-methyl-3-(trifluoromethyl)phenyl)ethyl)quinolin-4-amine], the results for the IC50 (at SOS1/KRAS-G12D; in assay [1]) were above 0.1 µM and above 0.5 µM, respectively. This compound had a GI50 in the assay on K562 cells above 0.5 µM.

As to `Cc1c([C@@H](C)Nc2ccnc3ccc(N4CC5(CCN(C)C5=O)C4)cc23)cccc1C(F)(F)F` [Compound 21, (R)-6-methyl-2-(4-((1-(2-methyl-3-(trifluoromethyl)phenyl)ethyl)amino)quinolin-6-yl)-2,6-diazaspiro[3.4]octan-5-one], the IC50 is above 0.1 µM on SOS1/KRAS-G12D and above 0.5 µM in assay [1]. For the same compound, the GI50 with K562 cells was above 0.5 µM.

Regarding `Cc1c([C@@H](C)Nc2ccnc3ccc(N4C[C@@H]5C[C@H]4CO5)cc23)cccc1C(F)(F)F` [Compound 22, 6-((1S,4S)-2-oxa-5-azabicyclo[2.2.1]heptan-5-yl)-N-((R)-1-(2-methyl-3-(trifluoromethyl)phenyl)ethyl)quinolin-4-amine], the IC50 is above 0.1 µM at SOS1/KRAS-G12D and above 0.5 µM in assay [1]. For the same compound, in the assay on K562 cells, the GI50 was above 0.5 µM.

The values are drawn from patent US20240208909A1, “SUBSTITUTED QUINOLINE DERIVATIVES HAVING SOS1 INHIBITION ACTIVITIES AND USES THEREOF” (Accutar Biotechnology Inc., priority 2022, published 2024).
